Data published in US11597708B2, “Inhibitors of heat shock factors and uses thereof” (HSF Pharmaceuticals SA, priority 2016, dated 2023).
Counter-ions that a name gives are not always drawn. Like-named read-outs stand apart in the source and are kept apart here.

Biological target: T1, HSF1 (Homo sapiens, UniProt Q00613)
T1 construct: functionally linked to an hsp70b promoter and therefore controlled by endogenous HSF1; endogenous in cells; host or cells: HeLa cells / HeLa-derived cell line Z74
T1 sequence (Q00613 1-529): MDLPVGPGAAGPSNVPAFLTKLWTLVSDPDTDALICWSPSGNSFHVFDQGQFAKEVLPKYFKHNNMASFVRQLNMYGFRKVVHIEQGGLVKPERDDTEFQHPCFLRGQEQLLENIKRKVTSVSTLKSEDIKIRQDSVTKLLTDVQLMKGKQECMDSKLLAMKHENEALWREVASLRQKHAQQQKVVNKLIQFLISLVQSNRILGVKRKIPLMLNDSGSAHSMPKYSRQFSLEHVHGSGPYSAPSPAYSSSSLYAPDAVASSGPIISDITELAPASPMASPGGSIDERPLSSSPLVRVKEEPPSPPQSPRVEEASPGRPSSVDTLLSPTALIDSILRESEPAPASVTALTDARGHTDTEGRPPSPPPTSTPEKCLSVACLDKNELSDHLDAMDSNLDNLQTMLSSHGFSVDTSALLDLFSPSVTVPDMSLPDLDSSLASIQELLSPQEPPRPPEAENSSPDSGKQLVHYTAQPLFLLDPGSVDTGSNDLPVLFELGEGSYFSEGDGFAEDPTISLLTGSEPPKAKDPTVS
Assay: Z74 cell-based reporter assay: heat-induced RLuc expression controlled by endogenous HSF1
Conditions: for inhibition at 12.5 µM: read-out: Inhibition of HSF1 activity at 12.5 μM IHSF [RLuc] (%); for inhibition at 25 µM: read-out: Inhibition of HSF1 activity at 25 μM IHSF [RLuc] (%); for IC50: inhibition of HSF1 activity [RLuc]
Excerpt: For screening this sublibrary, a cell-based assay was developed. We opted for a cell-based assay, because a cell-free assay would have had to be a DNA-binding assay. Such an assay would have limited discovery to molecules capable of interfering with the DNA-binding function of HSF1. This was thought to be too narrow a focus, considering that three of the four cavities identified in the HSF1 DNA-binding domain are not near the DNA interaction region. A straightforward cell-based assay, in which a HSF1-responsive gene would be assayed, was considered likely to be over-inclusive. Compounds would be scored as hits that inhibit any factor that is involved in HSF1 activation or prevents HSF1 deactivation. These factors include protein kinases, activators of protein phosphatases, factors affecting HSF1 mRNA stability, HSP90, HDAC6, etc. For developing a more discriminating cell-based assay, advantage was taken of the modular nature of HSF1. […] The cell-based assay developed (see below for the particular format employed) compared transactivation by wild type HSF1 and chimeric HSF1 in cells exposed to an HSF1-activating heat treatment in the presence of a sublibrary compound. A compound was scored as a hit, if it inhibited the activity of wild type HSF1 but not of chimeric HSF1.
The cell-based assay made use of HeLa-derived cell line Z74 that stably contains a gene for chimeric transcription factor LexA-(human) HSF1 under the control of a CMV early promoter, a firefly luciferase (flue) gene driven by a promoter responsive to the latter chimeric transcription factor and a Renilla luciferase (rluc) gene functionally linked to an hsp70b promoter and therefore controlled by endogenous HSF1 (FIG. 1A). As is shown in FIGS. 1B & C, the reporter genes responded similarly to heat dose, i.e., their activation depended on both duration of heat exposure and temperature of the exposure. […] Depletion of HSF1 (and LexA-HSF1) by siRNA supported the notion that this stress regulation is mediated by HSF1 (and LexA-HSF1). Therefore, the Z74 line was well suited for use in a screening assay aimed at discovering molecules that inhibit heat-induced HSF1 activity through interaction with the transcription factor's DNA-binding domain.
The compounds of the afore-mentioned biased sublibrary were screened in cell line Z74 at 12.5 and 25 μM concentrations. Typically, Z74 cultures in 96-well plates were exposed to compound or vehicle for 2 h, heat-treated at 43.0° C. for 30 min, and incubated further for 6 h at 37° C. to allow for accumulation of the luciferases. RLuc and FLuc activities were determined, typically using the Dual-Glo® Luciferase Assay System (Promega Corp., Madison, Wis.), and reading luciferase light counts in a Wallac Microbeta Trilux-1450 Luminometer (PerkinElmer, Waltham, Mass.). IHSF 001 was one of two library compounds that inhibited RLuc expression but not FLuc expression in heat-treated Z74 cells (Table 1; FIG. 2A). Therefore, IHSF 001 is an inhibitor of HSF1 function that specifically acts through the HSF1 DNA-binding domain. […] A corroborating experiment utilized a cell line containing an hsp70b promoter-driven fluc gene. […] IHSF 001 is (E)-ethyl 4-oxo-4-(thiazol-2-ylamino)but-2-enoate. The compound can be obtained from commercial sources (e.g., AKE-PB-90340538, Akos).

[1] = Z74 cells, 12.5 μM IHSF, negative values marked *: compound enhanced rLuc activity
[2] = Z74 cells, 25 μM IHSF, 2 h exposure, 43° C. 30 min, 6 h at 37° C.

| Structure (SMILES) | inhibition at 12.5 µM [1] [%] | inhibition at 25 µM [2] [%] | IC50 (Z74 cells) [µM] | inhibition at 12.5 µM [%] | inhibition at 25 µM [%] |
| --- | --- | --- | --- | --- | --- |
| CC(C)OC(=O)/C=C/C(=O)Nc1nccs1 [IHSF 028, (E)-3-(Thiazol-2-ylcarbamoyl)-acrylic acid isopropyl ester] | 13 | 41 |  |  |  |
| CCCCOC(=O)/C=C/C(=O)Nc1nccs1 [IHSF 042, (E)-3-(Thiazol-2-ylcarbamoyl)-acrylic acid butyl ester] | 1 | 52 |  |  |  |
| CCOC(=O)/C=C/C(=O)Nc1nc(-c2ccccn2)cs1 [IHSF 054, (E)-3-(4-Pyridin-2-yl-thiazol-2-ylcarbamoyl)-acrylic acid ethyl ester] | 22 | 69 | 20.2 |  |  |
| CCOC(=O)/C=C/C(=O)Nc1ccn(C)n1 [IHSF 016, (E)-3-(1-Methyl-1H-pyrazol-3-ylcarbamoyl)-acrylic acid ethyl ester] | 0 | 25 |  |  |  |
| CCOC(=O)/C=C/C(=O)Nc1nc(-c2cccnc2)cs1 [IHSF 055, (E)-3-(4-Pyridin-3-yl-thiazol-2-ylcarbamoyl)-acrylic acid ethyl ester] | 27 | 74 | 18.7 |  |  |
| CCOC(=O)/C=C/C(=O)Nc1ccnc(N2CCOCC2)c1 [IHSF 077, (E)-3-(2-Morpholin-4-yl-pyridin-4-ylcarbamoyl)-acrylic acid ethyl ester formic acid salt] |  |  |  | 42 | 67 |
| CCOC(=O)/C=C/C(=O)Nc1ncc(-c2ccccc2)s1 [IHSF 014, (E)-3-(5-Phenyl-thiazol-2-ylcarbamoyl)-acrylic acid ethyl ester] | 60 | 89 | 7.1 |  |  |
| CCOC(=O)/C=C/C(=O)Nc1ncc(C)s1 [IHSF 013, (E)-3-(5-Methyl-thiazol-2-ylcarbamoyl)-acrylic acid ethyl ester] | 34 | 50 |  |  |  |
| CCOC(=O)/C=C/C(=O)Nc1nncs1 [IHSF 018, (E)-3-([1,3,4]Thiadiazol-2-ylcarbamoyl)-acrylic acid ethyl ester] | 20 | 53 | 23.6 |  |  |
| CCOC(=O)/C=C/C(=O)Nc1ccnc(-c2ccncc2)c1 [IHSF 076, (E)-3-([2,4′]Bipyridinyl-4-ylcarbamoyl)-acrylic acid ethyl ester] | 56 | 66 |  |  |  |
| Cc1csc(NC(=O)/C=C/C(=O)N(C)C)n1 [IHSF 061, (E)-But-2-enedioic acid dimethyl-amide (4-methyl-thiazol-2-yl)-amide] | 12 | 18 |  |  |  |

Continued, in another order:

| inhibition at 12.5 µM [1] [%] | inhibition at 25 µM [2] [%] | IC50 (Z74 cells) [µM] | Structure (SMILES) | inhibition at 12.5 µM [%] | inhibition at 25 µM [%] |
| --- | --- | --- | --- | --- | --- |
| 62 | 92 | 10.6 | CCOC(=O)/C=C/C(=O)Nc1nc(CC)c(-c2ccccc2)s1 [IHSF 107, (E)-3-(4-Ethyl-5-phenyl-thiazol-2-ylcarbamoyl)-acrylic acid ethyl ester] |  |  |
| 22 | 27 | > 25 | O=C(/C=C/c1nnco1)Nc1nccs1 [IHSF 091, (E)-3-(1,3,4-Oxadiazol-2-yl)-N-(thiazol-2-yl)acrylamide] |  |  |
| 78 | 98 | 5.4 | O=C(/C=C/C1=NCCCO1)Nc1nccs1 [IHSF 090, (E)-3-(5,6-Dihydro-4H-[1,3]oxazin-2-yl)-N-thiazol-2-yl-acrylamide] |  |  |
| 6 | 44 |  | CCCC(=O)/C=C/C(=O)Nc1nccs1 [IHSF 095, (E)-4-Oxo-N-(thiazol-2-yl)hept-2-enamide] |  |  |
| 90 | 99 | 4.7 | O=C(/C=C/C1=NCCO1)Nc1nccs1 [IHSF 092, (E)-3-(4,5-Dihydro-oxazol-2-yl)-N-thiazol-2-yl-acrylamide] |  |  |
| 53 | 88 | 11.2 | CCOC(=O)/C=C/C(=O)Nc1nc(C(N)=O)c(-c2ccccc2)s1 [IHSF 109, (E)-3-(4-Carbamoyl-5-phenyl-thiazol-2-ylcarbamoyl)-acrylic acid ethyl ester] |  |  |
